Laboratory results taken from paper PMC11042242, “1,5-Disubstituted tetrazoles as PD-1/PD-L1 antagonists” (RSC Medicinal Chemistry, 2024).
pIC50: −log10 of the molar value.

Assays:
PD-1/PD-L1 complex = PD-1/PD-L1 complex (Homo sapiens, UniProt Q9NZQ7); details: for IC50 (nM), SAR toward PD-L1 based on the HTRF methodology / IC50: 5 nM hPD-L1, 50 nM hPD-1, 10f, 10l, 10p IC50 measured with 6 concentrations, remaining compounds estimated from scouting mode (50 and 5 nM) by translation of average Hill's fits; for IC50: read-out: IC50 (nM), SAR toward PD-L1 based on the HTRF methodology; for activity towards dissociating the PD-1/PD-L1 complex: one-point experiment at 50 and 5 nM concentrations of each inhibitor
Description: Homogenous Time Resolved Fluorescence
HTRF was performer using the certified Cis-Bio assay according to the manufacturer’s guidelines.
experiments were performed at 5 nM of hPD-L1 and 50 nM of hPD-1 in the final formulation at 20 µL final
After mixing all components according to Cis-Bio protocol, the plate was left for 1h incubation
at room temperature followed by TR-FRET measurement on Tecan Spark 20M. To determine the activity of tested
compounds data was collected for 2 different concentrations of the ligand: 50 nM and 5 nM in the final volume.
All measurements were performed on two individual
dilution series, unless states otherwise. Collected data was background subtracted on the negative control,
normalized on the positive control, averaged and for IC50 determination fitted with normalized Hill’s equation to
determine the IC50 value using Mathematica 12. For remaining compounds, which were measured in scouting
mode, the inhibitory constants were approximated by translation of the average Hill’s fits of fully described
compounds to match the experimental datapoints. Since all compounds reported here are closely related, the slope
of Hill’s fit that determines the shape of the curve is therefore similar across them.

human PD-L1 (hPD-L1) = target: T1, human PD-L1 (hPD-L1) (Homo sapiens, UniProt Q9NZQ7); assay: 1H NMR titration experiment with hPD-L1; assay type: binding; details: molar ratio of protein to inhibitor 1 : 1; PBS pH 7.4, 0.2 mM PD-L1
T1 construct: PD-L1 gene (amino acids 18-134); made in house
Description: The corresponding behaviour is characteristic of hPD-L1 oligomerization, previously observed by our group with BMS reference compounds.[20]
Fig. 2 Aliphatic part of the ^1H NMR spectra of PD-L1 with tetrazole-based inhibitors. ^1H NMR spectra of hPD-L1 protein (blue), PD-L1 and compounds: (A) 10f, (B) 10p, and (C) 10l in protein to inhibitor molar ratios of 1 : 1 (red) and 1 : 10 (green), respectively.
NMR spectra were recorded in PBS pH 7.4 containing 10% (v/v) of D2O added to the samples to provide the lock signal. Water suppression was carried out using the WATERGATE pulse sequence. All the spectra were recorded at 300 K using a Bruker Avance III 600 MHz spectrometer. The spectra were recorded at the protein/ligand at the molar ratio 1:1 and 1:10. The sample were prepared by adding the appropriate amounts of inhibitor, from 50 mM ligand stock solution in DMSO-d6, to the protein solution of PD-L1 at a concentration of 0.2 mM. Spectra were visualized using TopSpin 3.2
Protein expression and purification
E. coli strain BL21 was transformed with pET-21b plasmid carrying PD-L1 gene (amino acids 18-134). The bacteria were cultured in LB at 37°C until OD600nm of 0.6 when the recombinant protein production was induced with 1 mM IPTG. The protein production was continued overnight. Inclusion bodies were collected by centrifugation, washed twice with 50 mM Tris-HCl pH 8.0 containing 200 mM NaCl, 10 mM EDTA, 10 mM 2-mercaptoethanol and 0.5% Triton X-100, followed by a single wash with the same buffer but with no Triton X-100. The washed inclusion bodies were resuspended overnight in 50 mM Tris-HCl pH 8.0, 6 M GuHCl, 200 mM NaCl and 10 mM 2-mercaptoethanol and clarified with centrifugation. Refolding of PD-L1 was performed by drop-wise dilution into 0.1 M Tris-HCl pH 8.0 containing 1 M L-arginine hydrochloride, 0.25 mM oxidized glutathione and 0.25 mM reduced glutathione. […]
7.4. The quality of the refolded protein was evaluated by SDS-PAGE and NMR. […]

PD-L1 = system: PD-L1; set-up: method as in PMID 35585982; details: printed in Fig. 1B, patented PD-L1 dimerizers by Maxinovel Pharma; cited from earlier work

Chain of PD-1/PD-L1 complex (Q9NZQ7 19-238 limits assumed, one chain of several): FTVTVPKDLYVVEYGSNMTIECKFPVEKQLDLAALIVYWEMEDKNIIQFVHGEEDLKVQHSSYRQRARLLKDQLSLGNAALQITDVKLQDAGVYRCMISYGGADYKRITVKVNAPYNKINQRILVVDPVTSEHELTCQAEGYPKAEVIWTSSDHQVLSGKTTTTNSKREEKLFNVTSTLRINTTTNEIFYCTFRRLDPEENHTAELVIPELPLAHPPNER
T1 sequence (Q9NZQ7 18-134): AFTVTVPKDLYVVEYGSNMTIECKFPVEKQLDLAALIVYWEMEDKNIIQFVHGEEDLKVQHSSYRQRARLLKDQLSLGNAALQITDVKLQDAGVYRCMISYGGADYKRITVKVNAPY

IC50 (nM), SAR toward PD-L1 based on the HTRF methodology (PD-1/PD-L1 complex) | IC50 (PD-1/PD-L1 complex) [nM] | SMILES | also measured
Inactive | – | COc1cccc(CNC(c2nnnn2/C=C/c2cccc(-c3ccccc3)c2C)C(C)C)c1OC (centres unmarked) [10b] | –
– | 1770 | Cc1c(/C=C/n2nnnc2C(NCc2ccncc2)C2CC2)cccc1-c1ccccc1 (centres unmarked) [10d] | –
Inactive | – | Cc1c(/C=C/n2nnnc2CN[C@]23CC4CC(C[C@@](O)(C4)C2)C3)cccc1-c1ccccc1 [10h] | –
– | 944 | Cc1c(/C=C/n2nnnc2CN2CCCOC2)cccc1-c1ccccc1 [10l] | hPD-L1 oligomerization upon addition of the ligand (broadening of hPD-L1 proton signals) (human PD-L1 (hPD-L1)): protein oligomerization; activity towards dissociating the PD-1/PD-L1 complex (PD-1/PD-L1 complex): better activity
Inactive | – | Cc1c(/C=C/n2nnnc2CNCC(C)(C)C)cccc1-c1ccccc1 [10e] | –
– | – | Cc1c(COc2cc(OCc3cccc(C#N)c3)c(CN3C[C@H](O)C[C@@H]3C(=O)O)cc2Cl)cccc1-c1ccc2c(c1)OCCO2 [BMS-1166, reference compound] | undissociated PD-1/PD-L1 complex (PD-1/PD-L1 complex; one-point experiment, 50 and 5 nM concentrations of inhibitor): 42.1 ± 6.4%
– | 408 | CCNCc1nnnn1/C=C/c1cccc(-c2ccccc2)c1C [10f] | hPD-L1 oligomerization upon addition of the ligand (broadening of hPD-L1 proton signals) (human PD-L1 (hPD-L1)): protein oligomerization; activity towards dissociating the PD-1/PD-L1 complex (PD-1/PD-L1 complex): better activity
– | 1800 | Cc1c(/C=C/n2nnnc2C(C)NCCCO)cccc1-c1ccccc1 (centres unmarked) [10g] | –
– | 1000 | Cc1c(/C=C/n2nnnc2CN2CCOC2)cccc1-c1ccccc1 [10k] | –
– | 1840 | Cc1c(/C=C/n2nnnc2CNCCCCCO)cccc1-c1ccccc1 [10j] | –
– | 460 | Cc1c(/C=C/n2nnnc2CN2CCCCOC2)cccc1-c1ccccc1 [10i] | –
Inactive | – | Cc1c(/C=C/n2nnnc2CN[C@]23CC4CC(C[C@@](O)(C4)C2)C3)cccc1-c1ccc2c(c1)OCCO2 [10m] | –
– | 1130 | Cc1c(/C=C/n2nnnc2CN2CCCOC2)cccc1-c1ccc2c(c1)OCCO2 [10r] | –
– | – | Cc1c(/C=C/c2cc(CNC(C)(CO)C(=O)O)ccc2C(F)(F)F)cccc1-c1ccc2c(c1)OCCO2 (centres unmarked) [MAX-10181] | pIC50 (PD-L1): 7.74
– | 1130 | Cc1c(/C=C/n2nnnc2CNCCCCO)cccc1-c1ccc2c(c1)OCCO2 [10o] | –
– | 2850 | Cc1c(/C=C/n2nnnc2CNCCCCCO)cccc1-c1ccc2c(c1)OCCO2 [10n] | –
Inactive | – | Cc1c(/C=C/n2nnnc2CNCCO)cccc1-c1ccc2c(c1)OCCO2 [10q] | –
Inactive | – | Cc1c(/C=C/n2nnnc2C(CC(C)C)NCCN2CCOCC2)cccc1-c1ccccc1 (centres unmarked) [10a] | –
– | 254 | Cc1c(/C=C/n2nnnc2C(C)NCCCO)cccc1-c1ccc2c(c1)OCCO2 (centres unmarked) [10p] | hPD-L1 oligomerization upon addition of the ligand (broadening of hPD-L1 proton signals) (human PD-L1 (hPD-L1)): protein oligomerization; activity towards dissociating the PD-1/PD-L1 complex (PD-1/PD-L1 complex): better activity

SMILES | IC50 (nM), SAR toward PD-L1 based on the HTRF methodology (PD-1/PD-L1 complex) | IC50 (PD-1/PD-L1 complex) [nM] | also measured
Cc1c(/C=C/n2nnnc2C(CCl)NCc2ccco2)cccc1-c1ccccc1 (centres unmarked) [10c] | Inactive | – | –
